Data published in US20170165286A1, “COMPOSITIONS AND METHODS FOR TREATING DIABETES AND LIVER DISEASES” (Cempra Pharmaceuticals, Inc., priority 2014, published 2017).
Read-outs that look alike come from different tables or passages of the source.

Experiments:
[1] = Phase 1 study in subjects with hepatic impairment: pharmacokinetics and protein binding; format: in vivo, humans; design: AUC(0-t): concentration or dose not given beside the values; details: for AUC0-t Geometric Mean Ratio (%) (test/reference) / AUC0-tau Geometric Mean Ratio (%) (test/reference) / Cmax Geometric Mean Ratio (%) (test/reference) / AUC(0-t) / AUC / Cmax: Day 5; for AUC(0-t) / AUC / Cmax / half-life: human, plasma
Method: (§1) Safety and Pharmacokinetics of solithromycin in Subjects with Hepatic Impairment. The safety, pharmacokinetics (PK), and protein binding of solithromycin was evaluated in subjects with mild, moderate, and severe hepatic impairment compared to healthy subjects with normal hepatic function (matched for age, weight, and gender). The evaluation was performed in a Phase 1, open-label, multiple-dose study in subjects with mild (Child-Pugh Class A), moderate (Child-Pugh Class B), and severe (Child-Pugh Class C) hepatic impairment and healthy matched control subjects with normal hepatic function. All subjects received a once-daily dose of 800 mg on Day 1 followed by 400 mg on Days 2 through 5.
PK parameters on Day 5 were compared between the hepatic impaired cohorts and the control group, and geometric mean ratios were calculated.

[2] = system: STAM mice; assay: STAM model: liver triglyceride content; format: in vivo
Method: NASH-HCC (STAM™) Model. C57BL/6 (15-day-pregnant female) mice are obtained from Charles River Laboratories Japan (Kanagawa, Japan). Male pups are selected for the study. NASH is induced in male mice by a single subcutaneous injection of 200 μg streptozotocin (STZ, Sigma-Aldrich, USA) solution 2 days after birth, followed by feeding a HFD (57 kcal % fat, cat#: HFD32, CLEA Japan, Japan) beginning at 4 weeks of age. At 5 weeks of age, mice are divided into a control group and one or more treated group (generally 8 mice per group). Animals are sacrificed at 9 weeks of age, and biochemical, histological, and gene expression analyses are performed.
During weeks 5-9 (starting at day 35±2), test compound is administered (generally orally) at various doses diluted to 10 mL/kg and according to various dosing protocols to treatment groups (8 mice each) while a second group (8 mice) is administered vehicle only. Animals are sacrificed at 9 weeks.
Measurement of liver biochemistry—liver triglyceride content. Liver total lipid-extracts are obtained by Folch's method (Folch J. et al., J. Biol. Chem., 1957; 226:497). Liver samples are homogenized in chloroform-methanol (2:1, v/v) and incubated overnight at room temperature. After washing with chloroform-methanol-water (8:4:3, v/v/v), the extracts are evaporated to dryness, and dissolved in isopropanol. Liver triglyceride (TG) and cholesterol contents were measured by Triglyceride E-test and Cholesterol E-test (Wako Pure Chemical Industries, Japan), respectively. Extracts are diluted 2-fold in isopropanol when the triglyceride content exceeds the detection limit.
Illustrative dose response test groups. Group 1-Normal. Eight normal mice are fed with a normal diet ad libitum without any treatment until 9 weeks of age. Group 2-Vehicle. Eight NASH mice are orally administered vehicle (0.5% w/v methylcellulose+0.2% Tween®80) in a volume of 10 mL/kg twice daily from 5 to 9 week of age. Group 3-solithromycin 5 mg/kg. Eight NASH mice are orally administered vehicle supplemented with solithromycin at a dose of 5 mg/kg in the morning and the vehicle in the evening (5 mg/kg/day) from 5 to 9 weeks of age. Group 4-solithromycin 10 mg/kg. Eight NASH mice are orally administered vehicle supplemented with solithromycin at a dose of 10 mg/kg twice daily (20 mg/kg/day) from 5 to 9 weeks of age. Group 5-solithromycin 25 mg/kg. Eight NASH mice are orally administered vehicle supplemented with solithromycin at a dose of 25 mg/kg twice daily (50 mg/kg/day) from 5 to 9 weeks of age. Group 6-solithromycin 50 mg/kg. Eight NASH mice are orally administered vehicle supplemented with solithromycin at a dose of 50 mg/kg once daily (50 mg/kg/day) from 5 to 9 weeks of age.

[3] = Phase 1 study in subjects with hepatic impairment: safety; format: in vivo, humans; details: for Number of subjects reporting treatment-emergent AEs: 800 mg Day 1, 400 mg Days 2-5
Method: Safety of solithromycin in humans with hepatic insufficiency.
as §1
33 subjects were enrolled: 8 with mild impairment (mean Child-Pugh score 5.625), 8 with moderate impairment (mean Child-Pugh score 7.375), 8 with severe impairment (mean Child-Pugh score 10.625), and 9 healthy controls with normal hepatic function. One subject, a healthy control, discontinued study drug after 2 doses due to a rash; all other subjects (n=32) completed the study. Overall, the number of subjects reporting treatment-emergent AEs in the hepatic impaired cohorts (mild n=1, moderate n=4, severe n=4) was no greater than in the control group (n=4).

With `CC[C@H]1OC(=O)[C@@](C)(F)C(=O)[C@H](C)[C@@H](O[C@@H]2O[C@H](C)C[C@H](N(C)C)[C@H]2O)[C@](C)(OC)C[C@@H](C)C(=O)[C@H](C)[C@H]2N(CCCCn3cc(-c4cccc(N)c4)nn3)C(=O)O[C@]12C` [solithromycin] the “AUC0-t Geometric Mean Ratio (%) (test/reference)” value ([1]; Mild versus Control) was 117.44%, the “AUC0-tau Geometric Mean Ratio (%) (test/reference)” value ([1]; Mild versus Control) was 75.30% and the “Cmax Geometric Mean Ratio (%) (test/reference)” value ([1]; Mild versus Control) was 121.08%. For the same compound, the “AUC0-t Geometric Mean Ratio (%) (test/reference)” value ([1]; Moderate versus Control) was 117.83%, the “AUC0-tau Geometric Mean Ratio (%) (test/reference)” value ([1]; Moderate versus Control) was 71.58% and the “Cmax Geometric Mean Ratio (%) (test/reference)” value ([1]; Moderate versus Control) was 105.36%. The “AUC0-t Geometric Mean Ratio (%) (test/reference)” value ([1]; Severe versus Control) was 109.95%, the “AUC0-tau Geometric Mean Ratio (%) (test/reference)” value ([1]; Severe versus Control) was 58.86% and the “Cmax Geometric Mean Ratio (%) (test/reference)” value ([1]; Severe versus Control) was 77.69%. For the same compound, the “Accumulation on Day 5” value ([1]; any of the hepatic impaired cohorts) was “No accumulation”, the AUC(0-t) ([1]; healthy control subjects, read-out: AUC0-t (Reference Group)) was 7550 ng·h/mL and the AUC ([1]; healthy control subjects, read-out: AUC0-tau (Reference Group)) was 10500 ng·h/mL. The Cmax ([1]; healthy control subjects, read-out: Cmax (Reference Group)) was 649 ng/mL, the Cmax ([1]; mild hepatic impairment, 800 mg Day 1, 400 mg Days 2-5, read-out: Cmax (Test Group)) was 786 ng/mL and the AUC(0-t) ([1]; mild hepatic impairment, read-out: AUC0-t (Test Group)) was 8870 ng·h/mL. It also gave an AUC ([1]; mild hepatic impairment, read-out: AUC0-tau (Test Group)) of 7900 ng·h/mL, an AUC(0-t) ([1]; moderate hepatic impairment, read-out: AUC0-t (Test Group)) of 8900 ng·h/mL and an AUC ([1]; moderate hepatic impairment, read-out: AUC0-tau (Test Group)) of 7510 ng·h/mL. For the same compound, the Cmax ([1]; moderate hepatic impairment, read-out: Cmax (Test Group)) was 684 ng/mL, the AUC(0-t) ([1]; severe hepatic impairment, read-out: AUC0-t (Test Group)) was 8310 ng·h/mL and the AUC ([1]; severe hepatic impairment, read-out: AUC0-tau (Test Group)) was 6180 ng·h/mL. It also gave a Cmax ([1]; severe hepatic impairment, read-out: Cmax (Test Group)) of 504 ng/mL, a half-life ([1]; control) of 8.9 h and a half-life ([1]; mild hepatic impairment) of 10.2 h. The half-life ([1]; moderate hepatic impairment) was 10.4 h, the half-life ([1]; severe hepatic impairment) was 15.7 h and the “Mean plasma protein binding percentage at Day 5 Cmax” value ([1]; mild or moderate hepatic impairment vs control) was “not significantly affected”. The “Mean plasma protein binding percentage at Day 5 Cmax” value ([1]; severe cohort vs control) was “slightly lower”, the Liver triglyceride ([2]; 5 mg/kg q.d.) was 127.7 ± 62.3 mg/g liver and the Liver triglyceride ([2]; 10 mg/kg b.i.d.) was 161.8 ± 44.5 mg/g liver. The Liver triglyceride ([2]; 25 mg/kg b.i.d.) was 100.8 ± 35.3 mg/g liver, the “Liver triglyceride content compared to vehicle group” value ([2]; any doses (Groups 3-6)) was “no statistically significant differences” and the “Most commonly reported AEs” value ([3]; all cohorts) was “mild diarrhea and mild headache”. The “Mean changes from baseline in liver function tests on Day 8” value ([3]; any cohort, after 5 days of administration) was “not clinically significant”, the “ALT mean (±SD) change from baseline on Day 8” value (“ALT mean (±SD) change” below) ([3]; control cohort) was 2.6±4.47 IU/L and the “AST mean (±SD) change from baseline on Day 8” value (shortened to “AST mean (±SD) change”) ([3]; control cohort) was −0.6±2.92 IU/L. The “Direct bilirubin mean (±SD) change from baseline on Day 8” value (“Direct bilirubin mean (±SD) change” for short) ([3]; control cohort) was 0.00 ± 0.053 mg/dL, the “Number of subjects reporting treatment-emergent AEs” value (“Number” for short) ([3]; healthy control group (9 enrolled)) was 4 and the “Safety compared to healthy controls” value ([3]; humans with hepatic impairment, same doses) was “no significant differences in safety”. The Tolerability ([3]; humans with mild, moderate and severe hepatic impairment, doses as high as 800 mg) was “well tolerated”, the “ALT mean (±SD) change” value ([3]; mild hepatic impairment) was 4.0±8.00 IU/L and the “AST mean (±SD) change” value ([3]; mild hepatic impairment) was 0.4±5.93 IU/L. For the same compound, the “Direct bilirubin mean (±SD) change” value ([3]; mild hepatic impairment) was 0.00 ± 0.076 mg/dL, the “Number” value ([3]; mild hepatic impairment (8 enrolled)) was 1 and the “ALT mean (±SD) change” value ([3]; moderate hepatic impairment) was 7.8±6.92 IU/L. The “AST mean (±SD) change” value ([3]; moderate hepatic impairment) was 0.1±10.56 IU/L, the “Direct bilirubin mean (±SD) change” value ([3]; moderate hepatic impairment) was 0.03 ± 0.046 mg/dL and the “Number” value ([3]; moderate hepatic impairment (8 enrolled)) was 4. The “ALT mean (±SD) change” value ([3]; severe hepatic impairment) was 6.3±14.61 IU/L, the “AST mean (±SD) change” value ([3]; severe hepatic impairment) was 5.8±22.44 IU/L and the “Direct bilirubin mean (±SD) change” value ([3]; severe hepatic impairment) was 0.04 ± 0.207 mg/dL. For the same compound, the “Number” value ([3]; severe hepatic impairment (8 enrolled)) was 4.
